From PubChem BioAssay (NCI)
Where “and” joins values, the source holds several entries; their conditions need not be identical. Equal values may be shown once.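 Exposure lasted 48 hours, with cells grown in 96-well plates and compounds tested at five concentrations. At the GI50, growth is halved. The concentration for full growth arrest is given as TGI.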

Columns and labels:
Experiment in all cases: NCI anticancer screen, dose series, 48 h
A549 NSCLC = test system: A549 NSCLC
U251 CNS = test system: U251 CNS
SN12C renal = test system: SN12C renal
MOLT-4 leukemia = test system: MOLT-4 leukemia
SNB-19 CNS = test system: SNB-19 CNS
HCT-15 colon = test system: HCT-15 colon
M14 melanoma = test system: M14 melanoma
SK-OV-3 ovarian = test system: SK-OV-3 ovarian
DU-145 prostate = test system: DU-145 prostate
MCF7 breast = test system: MCF7 breast

Row | SMILES | GI50 (A549 NSCLC) | TGI (A549 NSCLC) | GI50 (U251 CNS) [µM] | TGI (U251 CNS) | GI50 (SN12C renal) | TGI (SN12C renal) [µM] | GI50 (MOLT-4 leukemia) [µM] | TGI (MOLT-4 leukemia) [µM] | GI50 (SNB-19 CNS) [µM] | TGI (SNB-19 CNS) | GI50 (HCT-15 colon) [µM] | TGI (HCT-15 colon) | GI50 (M14 melanoma) [µM] | TGI (M14 melanoma) [µM] | GI50 (SK-OV-3 ovarian) [µM] | TGI (SK-OV-3 ovarian) [µM] | GI50 (DU-145 prostate) [µM] | TGI (DU-145 prostate) [µM] | GI50 (MCF7 breast) [µM] | TGI (MCF7 breast) [µM]
1 | CCC[CH2][Sn]([Cl])([Cl])[CH2]CCC | 2.65 µM | 8.25 µM | 0.472 | 1.62 µM | 0.966 µM | 2.25 | 0.356 | 2.53 | 0.948 | 2.17 µM | 0.738 | 2.24 µM | 1.14 | 2.78 | 1.67 | 3.08 | – | – | – | –
2 | COc1ccc(N=NC(C(=O)c2ccccc2)C(=O)c2ccccc2)cc1 | – | 75 µM | – | > 100 µM | – | 78.8 | – | 72.2 | – | 80.3 µM | – | > 100 µM | – | 33.4 | – | 96 | – | – | – | –
3 | COc1cc2c(c(OC)c1OC)-c1ncc3c(OC)c(OC)c(OC)cc3c1C2 | 27.7 µM | > 100 µM | 36.9 | > 100 µM | 20.3 µM | 64.8 | – | – | 40.1 | > 100 µM | 28.6 | > 100 µM | 39.8 | > 100 | 29.5 | 74.9 | 29.6 | > 100 | – | –
4 | CCOC(=O)C(=O)Nc1ccccc1C | – | > 100 µM | – | > 100 µM | – | > 100 | – | > 100 | – | > 100 µM | – | > 100 µM | – | > 100 | – | > 100 | – | – | – | –
5 | CCCCCCCCCCCCCCCCCC1=NC(C)(C)CN1CC(C)O (stereo unspecified) | 3 µM | 7.12 µM | 4.89 | 19.9 µM | 10.5 µM | 24.4 | – | – | 7.08 | 31.5 µM | 1.88 | 3.95 µM | 2.29 | 5.77 | 18.8 | 37 | 3.66 | 13.1 | 3.09 | 14.1
6 | O=c1c2cc(F)ccc2sc2c(N3CCNCC3)nc3ccc(F)cc3c12 | – | – | – | – | 1.58 µM | 3.05 | – | – | 1.69 | 3.2 µM | 1.44 | 2.84 µM | 1.94 | 3.66 | – | – | 1.68 | 3.09 | – | –
7 | CC1=C(C(=O)CC(=O)C(=O)Nc2cc(C)ccc2C)Sc2ccccc2N1 | – | > 100 µM | – | > 100 µM | – | > 100 | – | > 100 | – | > 100 µM | – | > 100 µM | – | > 100 | – | > 100 | – | – | – | –
8 | O=C(CCC(=O)Nc1ccc(Cl)c(Cl)c1)CC(=O)c1ccc(Br)cc1 | – | > 100 µM | – | > 100 µM | – | > 100 | – | > 100 | – | > 100 µM | – | > 100 µM | – | > 100 | – | > 100 | – | – | – | –
9 | COc1cccc(/C(C#N)=C/c2nc3c(N4CCOCC4)nc(Cl)nc3n2C)c1 | 1.57 µM | 4.23 µM | 1.26 | 2.66 µM | 1.1 µM | 2.45 | 1.27 | 4.79 | – | – | 0.312 | 1.3 µM | 1.06 | 2.38 | 5.42 | 18.3 | 1.29 | 2.58 | – | –
10 | CCNC(=O)COc1ccc(Br)cc1Br | – | > 100 µM | – | > 100 µM | – | > 100 | – | > 100 | – | > 100 µM | – | > 100 µM | – | > 100 | – | > 100 | – | – | – | –
11 | CC1/C=C/[C@@]2(C)CCC(C(C)(C)O)C2C(O)C[C@](C)(O)/C=C/C1 (stereo partly specified) | – | > 100 µM | – | > 100 µM | – | > 100 | – | > 100 | – | > 100 µM | – | > 100 µM | – | > 100 | – | > 100 | – | – | – | –
12 | CC(=O)N/N=C1\CC(C)(C)C2CCC1C2 (stereo unspecified) | – | > 100 µM | – | > 100 µM | – | > 100 | – | > 100 | – | > 100 µM | – | > 100 µM | – | > 100 | – | > 100 | – | – | – | –
13 | COc1ccc(S(=O)(=O)N2CCN(C(=O)c3ccc(-c4ccccc4)cc3)CC2C(=O)NO)cc1 (stereo unspecified) | 8.47 µM and 30.7 µM | 12.5 µM and 82.2 µM | – | 12.5 µM and > 100 µM | 2.16 µM and 16.2 µM | – | 15.9 | 95.9 | – | 12.5 µM and > 100 µM | – | 12.5 µM and > 100 µM | 1.96 | 10 | > 100 | > 100 | – | – | 0.714 | 3.2
14 | C=C(CC(NC(=O)c1ccc(C(CC)Cc2cnc3nc(N)nc(N)c3n2)cc1)C(=O)O)C(=O)O (stereo unspecified) | – | > 100 µM | – | > 100 µM | 0.0205 µM | > 100 | – | > 100 | – | > 100 µM | – | > 100 µM | – | > 100 | 0.0669 | > 100 | – | – | – | –
15 | COc1ccc(NC(=O)/C(=C/c2ccccc2)C(C)=O)cc1 | – | 54.2 µM | – | 29.4 µM | – | 31.4 | – | 32.6 | – | 33.4 µM | – | 40.8 µM | – | 27.1 | – | 95.1 | – | – | – | –
16 | COc1ccc(NC(=O)CC2SC(=Nc3ccccc3C)NC2=O)c([N+](=O)[O-])c1 (stereo unspecified) | – | > 100 µM | – | > 100 µM | – | > 100 | – | > 100 | – | > 100 µM | – | > 100 µM | – | > 100 | – | > 100 | – | – | – | –
17 | C=CCn1c(C)nc2ccc(Nc3nc(Nc4ccc(F)cc4)nc4ccccc34)cc21 | 4.18 µM | 22.2 µM | 3.15 | 14.9 µM | 2.78 µM | 15.1 | 1.77 | 6.27 | 9 | 23.8 µM | 2.84 | 10.4 µM | 3.26 | 14.2 | – | – | 8.63 | 22.8 | – | –
18 | CCC1CC2C(=O)N(c3ccccc3)C(=O)C2c2[nH]c3ccccc3c21 (stereo unspecified) | – | > 100 µM | – | > 100 µM | – | 71.1 | – | > 100 | – | 75.1 µM | – | > 100 µM | – | > 100 | – | 29.3 | – | – | – | –
19 | N/N=C1\C(=O)N(C2CCCCCC2)C(=O)C1C(=O)NC1CCCCCC1 (stereo unspecified) | – | > 100 µM | – | 31.7 µM | – | 65.6 | – | 55.7 | – | > 100 µM | – | 82.7 µM | – | > 100 | – | – | – | – | – | –
20 | CCC(=O)c1c(NOC2OCC(OC(C)=O)C(OC(C)=O)C2OC(C)=O)nc(OC)n(C)c1=O (stereo unspecified) | – | > 100 µM | – | > 100 µM | – | > 100 | – | > 100 | – | > 100 µM | – | > 100 µM | – | > 100 | – | > 100 | – | – | – | –
